Assay results from ChEMBL document CHEMBL4392837, “Identification of highly potent and selective MMP2 inhibitors addressing the S1' subsite with d-proline-based compounds” (Bioorg Med Chem, 2019).
The source made the active and inactive calls. The rule behind the calls is not given here.

Species on record: Homo sapiens
Assay: Inhibition of cell migration of human A375M6 cells at 1 to 10 uM incubated for 6 hrs by Boyden chambers assay
Assay type: functional

In the case of CNC(=O)[C@H](Cc1c[nH]c2ccccc12)NC(=O)[C@@H](CC(=O)NO)CC(C)C, the inhibition is reported as “Active”.
